From patent US11510428B2, “Rebaudioside B and derivatives” (SWEET GREEN FIELDS INTERNATIONAL CO., LIMITED, priority 2011, dated 2022)

Tests used:
[1] = General taste and sweetness statements on steviol glycosides, RA, RB and RB salt (background and description); type: in vivo
[2] = cited from earlier work
[3] = Taste comparison between RB and RA by experts (Example 7); type: in vivo, human; conditions: 400 ppm aqueous solution
Source text: Taste comparison between RB (prepared in Example 1, first part) and RA Purity of RA was 99.0% by HPLC and RB was 99.1% by HPLC.
RB sample: 400 ppm aqueous solution
RA sample: 400 ppm aqueous solution

[4] = Sensory evaluation after adding Reb D to samples of Example 9 (Example 10); type: in vivo, human; conditions: total concentration of rebaudiosides 400 ppm

| Compound | Concentration that provides maximum sweetness ([1]; aqueous solution) | Concentration above which there is no increased perceived sweetness ([1]; in food products) | Bitterness and aftertaste ([2]; 100% purity RA, e.g. 500 ppm aqueous solution) | Taste quality ([2]; increased sweetness and decreased bitterness, Phytochemistry 68, 2007) | Bitterness ([3]; 7/10 experts) | Sensory taste profile on addition of Reb D [4] | On-set profile ([1]; compared with other steviol glycosides) | Taste profile [3] | Sweetness ([3]; 7/10 experts) |
| --- | --- | --- | --- | --- | --- | --- | --- | --- | --- |
| C=C1C[C@@]23CC[C@H]4[C@@](C)(CCC[C@@]4(C)C(=O)O[C@@H]4O[C@H](CO)[C@@H](O)[C@H](O)[C@H]4O)[C@@H]2CC[C@]1(O[C@@H]1O[C@H](CO)[C@@H](O)[C@H](O[C@@H]2O[C@H](CO)[C@@H](O)[C@H](O)[C@H]2O)[C@H]1O[C@@H]1O[C@H](CO)[C@@H](O)[C@H](O)[C@H]1O)C3 [RA, Rebaudioside A] | About 250 ppm | about 500 ppm | appear strongly at higher concentrations | better than stevioside | strong bitterness profile |  |  |  |  |
| C=C1C[C@@]23CC[C@H]4[C@@](C)(CCC[C@@]4(C)C(=O)O[C@@H]4O[C@H](CO)[C@@H](O)[C@H](O)[C@H]4O[C@@H]4O[C@H](CO)[C@@H](O)[C@H](O)[C@H]4O)[C@@H]2CC[C@]1(O[C@@H]1O[C@H](CO)[C@@H](O)[C@H](O[C@@H]2O[C@H](CO)[C@@H](O)[C@H](O)[C@H]2O)[C@H]1O[C@@H]1O[C@H](CO)[C@@H](O)[C@H](O)[C@H]1O)C3 [Reb D, Rebaudioside D] |  |  |  |  |  | can improve sensory taste profile |  |  |  |
| Rebaudioside B [RB] |  |  |  |  | less bitterness than RA |  | short on-set profile | tasted better than RA | lesser sweetness than RA |
